Measurements: article PMC5951806, “Rapid labelling and covalent inhibition of intracellular native proteins using ligand-directed N-acyl-N-alkyl sulfonamide” (Nature Communications, 2018)

Key:
[1] = target: Pyruvate kinase PKM (PKM) (Homo sapiens, UniProt P14618); test: TMT LC-MSMS of 11-labelled proteins; format: cell-based
Text: (§1) The labelled proteins were enriched by immunoprecipitation with an anti-fluorescein antibody and tryptically digested in gel. Digested peptides were modified with Light- (L-), Medium- (M-), or Heavy- (H-) TMT reagent for samples treated with 11, 11 with PU-H71 (as competitive condition), or DMSO (vehicle), respectively, and mixed in a 1:1:1 ratio for LC-MSMS analysis. We performed three experimental replicates, in which proteins detected and quantified at least twice were selected as identified proteins. According to the related approach of Cravatt et al[44], the proteins having L/H (11/DMSO) ratios >5 were defined as 11-labelled proteins. […] On the basis of these criteria, we identified 6 proteins that react with 11, including three ligand-specific targets (Hsp90α (HSP90AA1), Hsp90β (HSP90AB1), and Grp94 (HSP90B1)) and three off-targets (Trifunctional enzyme subunit α (HADHA), Tubulin-α (TUBA1B), and ADP/ATP translocase 3 (SLC25A6)) (Fig. 5d, e and Supplementary Data 1). […] Grp94, a HSP90 isomer, was previously reported to be a PU-H71 specific target. TRAP-1, another Hsp90 isomer that can bind PU-H71, on the other hand, was not identified as 11-target by our criteria.
(§2) SKBR3 human breast cancer cells (2.0 × 10^6 cells) were seeded on a 10 cm dish and cultured for 3 days in McCoy’s 5A in a 5% CO2 humidified chamber at 37 °C. […] As competitive experiments, the labelling was conducted in the presence of PU-H71 (10 µM). After labelling, the cells were washed twice with PBS, and lysed with RIPA buffer. […] The supernatant was mixed with chilled acetone and incubated overnight at −80 °C. The protein precipitates were solubilized by sonication in 1 mL of RIPA buffer containing 1% SDS, and then 10-fold diluted with RIPA buffer to reduce SDS concentration to c.a. 0.1%. The protein solution (containing 1 mg of protein) was mixed with Protein G Sepharose 4 Fast Flow (GE Healthcare) and rotated at 4 °C for 1 h. After removal of the beads, the remaining supernatant was mixed with anti-fluorescein antibody (Abcam, ab19491, 7:10000) and rotated at 4 °C for 1 h, followed by addition of fresh Protein G Sepharose 4 Fast Flow and further incubation at 4 °C for 4 h. The beads were washed five times with RIPA buffer and once with PBS. Proteins were eluted from the beads by addition of 2 × sample buffer containing 100 mM DTT and boiling at 95 °C for 5 min. The samples were subjected to a 7.5% SDS–PAGE gel (Mini-PROTEAN TGX Gels, BioRad), and electrophoresed as the migration distance of dye front is about 10 mm. Each lane was excised (height, 10 mm), and treated with a 47.5% methanol / 47.5% pure water / 5% acetic acid for 20 min, a 50% methanol / 50% pure water for 10 min, and in pure water for 10 min. The gel pieces were dehydrated with 100% acetonitrile, and then swelled with 200 μL of 100 mM TEAB (triethylamine bicarbonate) buffer containing 10 mM DTT and heated at 56 °C for 30 min. The solutions were replaced with 200 µL of 100 mM TEAB buffer containing 55 mM iodoacetamide and incubated for 45 min in the dark. The gel pieces were washed with 100 mM TEAB buffer and dehydrated in acetonitrile. This step was repeated once. The gels were reswelled in 100 mM TEAB buffer containing 10 ng/μL Sequencing Grade Trypsin (Promega) and incubated overnight at 37 °C. To the gels, 50 μL of an extraction solution (50% acetonitrile, 0.1% TFA) was added. After 10 min incubation, the supernatants were collected to new tubes, and this process was repeated twice. Extracted peptides were dried in vacuo and reconstituted with 25 μL of 100 mM TEAB buffer.

[2] = target: T1, staphylococcal nuclease domain-containing protein 1 (SND1) (Homo sapiens, UniProt Q7KZF4); test: TMT LC-MSMS of 11-labelled proteins; format: cell-based
T1 sequence (Q7KZF4 1-910): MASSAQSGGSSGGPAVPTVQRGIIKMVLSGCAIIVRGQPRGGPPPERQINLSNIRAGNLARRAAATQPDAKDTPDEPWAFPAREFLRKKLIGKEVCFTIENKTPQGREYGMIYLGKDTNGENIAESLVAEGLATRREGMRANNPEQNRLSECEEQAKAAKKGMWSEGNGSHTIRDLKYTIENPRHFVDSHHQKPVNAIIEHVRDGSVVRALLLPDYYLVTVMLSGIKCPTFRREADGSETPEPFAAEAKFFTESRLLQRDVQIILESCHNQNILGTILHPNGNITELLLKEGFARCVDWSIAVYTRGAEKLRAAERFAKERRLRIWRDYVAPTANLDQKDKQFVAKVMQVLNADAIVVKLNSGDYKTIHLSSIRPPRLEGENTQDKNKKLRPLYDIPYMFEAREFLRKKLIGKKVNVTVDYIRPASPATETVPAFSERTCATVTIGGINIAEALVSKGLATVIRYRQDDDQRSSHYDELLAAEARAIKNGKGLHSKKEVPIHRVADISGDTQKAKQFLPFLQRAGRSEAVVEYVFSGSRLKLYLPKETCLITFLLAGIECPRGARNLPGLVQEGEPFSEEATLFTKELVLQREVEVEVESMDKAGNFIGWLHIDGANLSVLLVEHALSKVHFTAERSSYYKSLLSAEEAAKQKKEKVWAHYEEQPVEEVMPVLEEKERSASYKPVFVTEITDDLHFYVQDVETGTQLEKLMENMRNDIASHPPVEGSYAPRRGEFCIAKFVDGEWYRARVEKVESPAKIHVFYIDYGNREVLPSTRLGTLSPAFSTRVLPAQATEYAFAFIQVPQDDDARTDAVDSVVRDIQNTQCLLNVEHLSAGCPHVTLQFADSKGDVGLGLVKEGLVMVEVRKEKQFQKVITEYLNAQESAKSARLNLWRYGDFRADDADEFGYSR
Text: as §1, §2

[3] = sheet Exp1, SKBR3 cells, 11 0.5 µM 3 h vs DMSO
[4] = sheet Exp1, SKBR3 cells, 11 0.5 µM 3 h vs with PU-H71 10 µM
[5] = sheet Merged, SKBR3 cells, 11 0.5 µM 3 h vs DMSO
[6] = sheet Merged, SKBR3 cells, 11 0.5 µM 3 h vs with PU-H71 10 µM

Sequence of Pyruvate kinase PKM (PKM) (P14618 whole entry): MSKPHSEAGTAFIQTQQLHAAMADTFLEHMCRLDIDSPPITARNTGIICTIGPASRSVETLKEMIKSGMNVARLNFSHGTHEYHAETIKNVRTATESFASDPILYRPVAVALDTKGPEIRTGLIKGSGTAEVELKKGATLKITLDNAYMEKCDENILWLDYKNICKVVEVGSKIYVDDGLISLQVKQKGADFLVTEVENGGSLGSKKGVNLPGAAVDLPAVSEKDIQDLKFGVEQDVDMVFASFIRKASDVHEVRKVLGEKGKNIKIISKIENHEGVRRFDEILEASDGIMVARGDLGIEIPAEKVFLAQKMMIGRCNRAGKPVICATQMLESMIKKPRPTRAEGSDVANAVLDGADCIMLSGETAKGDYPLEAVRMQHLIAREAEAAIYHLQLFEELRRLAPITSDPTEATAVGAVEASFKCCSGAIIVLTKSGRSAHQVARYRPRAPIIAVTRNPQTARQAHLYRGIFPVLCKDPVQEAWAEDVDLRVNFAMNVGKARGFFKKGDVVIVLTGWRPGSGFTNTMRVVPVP

## CC(=O)Oc1ccc2c(c1)Oc1cc(OC(C)=O)ccc1C21OC(=O)c2cc(C(=O)NCCOCCOCCNC(=O)CCCC(=O)N(CC#N)S(=O)(=O)c3ccc(C(=O)NCCCn4c(Sc5cc6c(cc5I)OCO6)nc5c(N)ncnc54)cc3)ccc21 [compound 11]
[1]; Exp3, PKM
  Abundance Ratio: (11) / (11 with PU-H71): 1.148
  Abundance Ratio: (11) / (DMSO): 2.441
  Abundances (Grouped): 11: 100.1
  Abundances (Grouped): 11 with PU-H71: 87.2
[1]; [3]
  Abundance Ratio: (11) / (DMSO): 3.506
[1]; [4]
  Abundance Ratio: (11) / (11 with PU-H71): 0.917
[1]; sheet Exp2, PKM
  Abundance Ratio: (11) / (11 with PU-H71): 0.916
  Abundance Ratio: (11) / (DMSO): 2.005
  Abundances (Grouped): 11: 121.5
  Abundances (Grouped): 11 with PU-H71: 132.6
[1]; [5]
  Abundance Ratio: (11) / (DMSO): 3.4
[1]; [6]
  Abundance Ratio: (11) / (11 with PU-H71): 0.922
[2]; Exp3, SND1
  Abundance Ratio: (11) / (11 with PU-H71): 0.662
  Abundance Ratio: (11) / (DMSO): 1.871
  Abundances (Grouped): 11: 30.5
[2]; Exp3, SND1, with PU-H71
  Abundances (Grouped): 11 with PU-H71: 46.1
[2]; [3]
  Abundance Ratio: (11) / (DMSO): 2.172
[2]; [4]
  Abundance Ratio: (11) / (11 with PU-H71): 0.838
[2]; [5]
  Abundance Ratio: (11) / (DMSO): 2.016
[2]; [6]
  Abundance Ratio: (11) / (11 with PU-H71): 0.745
